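How tested: cells in 96-well plates exposed to compound for 48 hours at five concentrations. GI50: concentration for 50% inhibition of growth. TGI is the concentration that stops growth completely.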
Legend:
Test in all cases: growth of human tumour cells (NCI), 48 h
DU-145 prostate = system: DU-145 prostate
NCI-H460 lung = system: NCI-H460 lung
RXF 393 renal = system: RXF 393 renal
MDA-MB-231 breast = system: MDA-MB-231 breast
UO-31 renal = system: UO-31 renal
SR leukemia = system: SR leukemia
UACC-257 melanoma = system: UACC-257 melanoma
A498 renal = system: A498 renal
EKVX NSCLC = system: EKVX NSCLC
BT-549 breast = system: BT-549 breast

SMILES | GI50 (DU-145 prostate) | TGI (DU-145 prostate) | GI50 (NCI-H460 lung) | TGI (NCI-H460 lung) | GI50 (RXF 393 renal) | TGI (RXF 393 renal) | GI50 (MDA-MB-231 breast) | TGI (MDA-MB-231 breast) | GI50 (UO-31 renal) | TGI (UO-31 renal) | GI50 (SR leukemia) | TGI (SR leukemia) | GI50 (UACC-257 melanoma) | TGI (UACC-257 melanoma) | GI50 (A498 renal) | TGI (A498 renal) | GI50 (EKVX NSCLC) | TGI (EKVX NSCLC) | GI50 (BT-549 breast) | TGI (BT-549 breast)
NCCCn1c2c(c3ccc([N+](=O)[O-])cc3c1=O)C(=O)c1cc(-c3ccccc3)ccc1-2 | 0.491 µM | 1.02 µM | 0.34 µM | 1.38 µM | 1.36 µM | 2.79 µM | 1.29 µM | 2.85 µM | 1.73 µM | 3.41 µM | 0.183 µM | 0.46 µM | 1.85 µM | 3.46 µM | 0.694 µM | 1.54 µM | 1.61 µM | 3.45 µM | 2.09 µM | 3.77 µM
O=C1CCCCC=C1C[N+](=O)[O-] | 27.3 µM | 96.3 µM | 34.3 µM | > 100 µM | 14.7 µM | 35.2 µM | 22.2 µM | 49.4 µM | 38.2 µM | > 100 µM | 3.7 µM | 12.3 µM | 28.6 µM | > 100 µM | > 100 µM | > 100 µM | 34.5 µM | > 100 µM | 26 µM | 61.4 µM
c1ccc(Nc2nc(-c3ccccn3)cs2)nc1 | 0.65 µM | > 100 µM | 0.29 µM | 2.61 µM | 1.98 µM | > 100 µM | 0.934 µM | > 100 µM | 0.0737 µM | 0.711 µM | 0.308 µM | 7.95 µM | 0.496 µM | 15.4 µM | 0.266 µM | 13.5 µM | 0.507 µM | > 56.9 µM | 0.713 µM | > 26 µM
Cc1[nH]c(C(=O)Nc2ccccc2OC2CCNCC2)c(Cl)c1Cl | 1.05 µM | 2.04 µM | 0.984 µM | 1.93 µM | 0.816 µM | 1.56 µM | 0.895 µM | 1.76 µM | 0.656 µM | 1.32 µM | 1.46 µM | 5.69 µM | 1.04 µM | 2.12 µM | 2.71 µM | 9.47 µM | 1.09 µM | 3.86 µM | 0.895 µM | 1.7 µM
O=S(=O)(c1ccc(Br)cc1)N1CCN(S(=O)(=O)c2ccc(Br)cc2)CC1 | – | > 100 µM | – | – | – | > 100 µM | – | > 100 µM | – | > 100 µM | – | > 100 µM | – | > 100 µM | – | > 100 µM | – | > 100 µM | – | > 100 µM
CCC(CCC(C)C1CCC2C3CC=C4CC(OC5OC(CO)C(O)C(O)C5O)CCC4(C)C3CCC12C)C(C)C (stereo not given) | – | > 100 µM | – | > 100 µM | – | > 100 µM | – | > 100 µM | – | > 100 µM | – | > 100 µM | – | > 100 µM | – | > 100 µM | – | > 100 µM | – | > 100 µM
C=C1CC[C@@H]2[C@](C)(COC(C)=O)[C@H](OC(C)=O)CC[C@@]2(C)[C@@H]1CC(Nc1ccc(S(=O)(=O)Nc2cc(C)on2)cc1)C1=CCOC1=O (stereo not given in full) | 2.43 µM | 6.53 µM | 2.35 µM | 5.7 µM | 2.05 µM | 3.84 µM | 2.22 µM | 5.11 µM | 1.69 µM | 3.52 µM | 0.375 µM | 3.36 µM | 2.95 µM | 6.19 µM | 7.69 µM | 20.3 µM | 11 µM | 25.9 µM | 1.79 µM | 3.47 µM
COc1cc2nc(-c3ccc(Cl)cc3)cc(OCCCN3CCCC3)c2cc1OC | 2.15 µM | 13.8 µM | 0.823 µM | 11.2 µM | 1.17 µM | 3.78 µM | 0.907 µM | 4.08 µM | 1.72 µM | 6.63 µM | 0.251 µM | 1.38 µM | 1.96 µM | 4.87 µM | 2.19 µM | 5.19 µM | 1.21 µM | 12 µM | 1.77 µM | 7.37 µM
O=[N+]([O-])c1ccc(Sc2nc(Cl)nc(NC3CCCC3)n2)cc1 | 7.99 µM | > 10 µM | > 10 µM | > 10 µM | 3.34 µM | > 10 µM | > 10 µM | > 10 µM | 3.08 µM | > 10 µM | > 10 µM | > 10 µM | – | – | > 10 µM | > 10 µM | – | – | > 10 µM | > 10 µM
COc1ccc2c(c1)C1OCCNC1CC2 (stereo not given) | – | > 100 µM | – | – | – | > 100 µM | – | > 100 µM | – | > 100 µM | – | > 100 µM | – | > 100 µM | – | > 100 µM | – | > 100 µM | – | > 100 µM
COc1cccc(-n2cc(-c3nc(Nc4cc(C)[nH]n4)c4ccccc4n3)nn2)c1 | 5.51 µM | 11.7 µM | 2.65 µM | 11.3 µM | 1.45 µM | 8.92 µM | 3.02 µM | 15.6 µM | 0.187 µM | 5.39 µM | 2.03 µM | 13.5 µM | 7.75 µM | 15 µM | 0.291 µM | 7.08 µM | – | – | 7.04 µM | 13.5 µM
NS(=O)(=O)c1ccc(NCc2cnc3ccccc3n2)cc1 | – | > 100 µM | – | > 100 µM | – | > 100 µM | – | > 100 µM | – | > 100 µM | – | > 100 µM | – | > 100 µM | – | > 100 µM | – | > 100 µM | – | > 100 µM
CCCCCCC/C=C/[C@H]1O[C@]2(O)C(=O)C=C3C[C@@H](O[C@@H]4O[C@H](CO)[C@@H](O)C(O)[C@@H]4O)C[C@@H]3[C@H]2C=C1C (stereo not given in full) | 3.52 µM | 7.44 µM | 6.61 µM | 24.3 µM | 0.82 µM | 2.62 µM | 1.2 µM | 5.53 µM | 0.666 µM | 2.36 µM | 0.717 µM | 2.85 µM | 2.98 µM | 7.59 µM | 4.41 µM | 9.13 µM | 4.82 µM | 11 µM | 1.18 µM | 5.53 µM
CCCC[n+]1c(/C=C\c2c(OC)cc(OC)cc2OC)ccc2ccccc21 | 1.04 µM | 11.1 µM | 0.574 µM | 2.83 µM | 1.59 µM | 5.87 µM | 1.42 µM | 4.62 µM | 2.22 µM | 8.26 µM | 0.306 µM | 30.3 µM | 0.38 µM | 2.79 µM | 0.157 µM | 2.87 µM | – | – | 0.738 µM | 3.19 µM

Source: PubChem BioAssay (NCI)
